{
  "source": "paper PMC3164908",
  "about": "(European journal of medicinal chemistry, 2011)",
  "key": {"[1]": {"test_system": "multidrug-resistant strains of HIV", "details": "cited from earlier work"}, "MT-2 cell line": {"test_system": "MT-2 cell line", "test": "Cell viability assay", "assay_type": "cell-based, human", "details": "MTT assay, concentrations up to 100 μM"}, "Solubility in water": {"test": "Solubility in water", "assay_type": "physicochemical"}, "[2]": {"test_system": "TZM-BL (derived from Hela Cells)", "test": "Cytotoxicity screening, Promega CellTiter-Glo Luminescent Cell Viability Assay", "assay_type": "cell-based", "details": "Homo sapiens, read-out: IC50 (μM), concentration that inhibits cell growth by 50%"}},
  "note": "“Also recorded” adds a separate entry of the source. Like-named read-outs stand apart in the source and are kept apart here.",
  "data": [
    {"molecule": "Cc1cn([C@H]2C[C@H](O)[C@](CO)(N=[N+]=[N-])O2)c(=O)[nH]c1=O", "note": "[4′-C-azidothymidine]", "values": [
      {"measurement": "EC50", "setting": "[1]", "value": 340, "unit": "nM"}
    ]},
    {"molecule": "[N-]=[N+]=N[C@]1(CO)O[C@@H](n2ccc(N)nc2=O)[C@@H](F)[C@@H]1O", "note": "[Compound 10, 1-(4′-azido-2′-deoxy-2′-fluoro-β -D-arabinofuranosyl)cytosine]", "values": [
      {"measurement": "cytotoxicity / effect on cell growth", "setting": "MT-2 cell line", "value": "did not show significant cytotoxicity; also recorded: without significant cytotoxicity; also recorded: no significant effect on cell growth or any cytotoxic effect"},
      {"measurement": "solubility", "setting": "Solubility in water; water", "value": 3.1, "unit": "g in 100 g water"}
    ]},
    {"molecule": "Cl.[N-]=[N+]=N[C@]1(CO)O[C@@H](n2ccc(N)nc2=O)[C@@H](F)[C@@H]1O", "note": "[Compound 11, 1-(4-azido-2-deoxy-2-fluoro)-β-D-arabinofuranosyl)cytosine hydrochloride salt]", "values": [
      {"measurement": "IC50", "setting": "[2]", "value": "> 140", "unit": "µM"}
    ]},
    {"molecule": "Cl.[N-]=[N+]=N[C@]1(CO)O[C@@H](n2ccc(N)nc2=O)[C@@H](F)[C@@H]1O", "note": "[Compound 11]", "values": [
      {"measurement": "cytotoxicity / effect on cell growth", "setting": "MT-2 cell line", "value": "did not show significant cytotoxicity; also recorded: without significant cytotoxicity; also recorded: no significant effect on cell growth or any cytotoxic effect"},
      {"measurement": "solubility", "setting": "Solubility in water", "value": 14.3, "unit": "g in 100 g water"}
    ]}
  ]
}
